Measured values as given in patent US11166948B2, “Pharmaceutical composition for treatment of aortic aneurysm” (National University Corporation Hamamatsu University School …, priority 2017, dated 2021).

Experiments:
[1] = test system: aortic wall hypoxia-induced rat AAA model; assay: Action of Compound 1 in aortic wall hypoxia-induced rat AAA model; assay type: in vivo; conditions: vs control group; for mortality due to rupture (non-rupture survival rate): day of operation to Day 28 post operation
Description: The action of Compound 1 in a rat AAA model (Non-Patent Document 3) induced by operation in which the aortic wall was separated from the surrounding tissue, a catheter was inserted, and then the abdominal aorta was ligated together with a catheter with a thread was studied.
In this test, Compound 1 was manufactured according to the method described in Patent Document 1, and mixed, in a proportion of 0.15%, with a normal diet (FR2, manufactured by Funabashi Farm Co., Ltd.), and the Compound 1-mixed diet was used.
Sprague-Dawley male rats (300 to 350 g: Japan SLC, Inc.) were used in the experiment. The rats were reared at room temperature of 25° C. ±1° C., and allowed to freely take the feed and water.
The model was created according to the method described in Non-Patent Document 3. Specifically, a rat AAA model was created by separating the rat aortic wall from the surrounding tissue, inserting a polyurethane catheter, and then ligating the abdominal aorta together with a plastic catheter with a monofilament thread, and inducing AAA.
The rat models were divided into two groups: a normal diet administration group (hereinafter referred to as “control group”) (n=20) and a 0.15% Compound 1-mixed diet administration group (hereinafter referred to as “Compound 1 group”) (n=20). The normal diet or Compound 1-mixed diet was freely fed in a period from one week before the AAA model creation operation (7 days before operation) to the end of the experiment.
In both the groups, up to 28 days post operation, the aneurysm diameter was measured by echo and comparison in survival was made.
In addition, the surviving animals were sacrificed after 28 days to analyze the AAA pathological tissue.
The AAA maximum short-axis diameter was measured with an ultrasonic diagnostic apparatus (Vevo770, manufactured by VisualSonics Inc.) on the day of operation and Day 7, Day 14, Day 21 and Day 28 post operation.
In the same models as in Example 1, the effect of Compound 1 on the formed AAA was studied.
Specifically, the administration of the Compound 1-mixed diet was started one week after the AAA model creation operation (7 days after operation) until the end of the experiment in this example, in place of one week before the AAA model creation operation (7 days before operation) until the end of the experiment in Example 1 (3). In addition, on Day 7 post operation, rats having an aortic aneurysm diameter of 3 mm or more were selected by measurement with an ultrasonic diagnostic apparatus (Vevo770, manufactured by VisualSonics Inc.), and then the rats were randomly divided into two groups: a normal diet administration group (hereinafter referred to as “control group”) (n=18) and a 0.15% Compound 1-mixed diet administration group (hereinafter referred to as “Compound 1 group”) (n=15). […]

[2] = test system: elastase-induced model rats; conditions: preventive administration before AAA formation; cited from earlier work

SMILES | aneurysm diameter (AAA maximum short-axis diameter) ([1]; Example 1: 0.15% Compound 1-mixed diet from 7 days before operation to end of experiment, echo up to Day 28 post operation, no significant difference) | mortality due to rupture (non-rupture survival rate) ([1]; Example 1: 0.15% Compound 1-mixed diet from 7 days before operation, Log Rank p=0.036) | mortality due to rupture (non-rupture survival rate) ([1]; Example 2: 0.15% Compound 1-mixed diet from 7 days after operation (formed AAA), Log Rank p=0.055) | aneurysm diameter (AAA maximum short-axis diameter) ([1]; Example 2: 0.15% Compound 1-mixed diet from 7 days after operation (formed AAA, diameter 3 mm or more), Day 7 to Day 14 post operation, p=0.014) | AAA dilatation [2]
O=C(NCCCOc1ccc2[nH]c(=O)ccc2c1)N(C1CC1)[C@@H]1CCCC[C@H]1O [Compound 1, (−)-6-[3-[3-cyclopropyl-3-[(1R,2R)-2-hydroxycyclohexyl]ureido]propoxy]-2(1H)-quinolinone] | tendency toward suppression of the increase in the aneurysm diameter | significantly lower | lower | significantly lower | 
O=C1CCc2cc(OCCCCc3nnnn3C3CCCCC3)ccc2N1 [cilostazol] |  |  |  |  | suppresses AAA dilatation
